Values joined by “and” are separate entries in the source; they are usually repeats but may differ in a detail not shown here. Identical values can stand only once. Like-named read-outs stand apart in the source and are kept apart here. Blank lines part the entries; values can stand above or below the compound they belong to.
How the values were obtained:
[1] = test system: Rat Carrageenan-Induced Footpad Edema; experiment: Rat Carrageenan-Induced Footpad Edema Test; format: in vivo, male Sprague Dawley rats; details: footpad volume 3 hours after carrageenan
[2] = target: T1, cPLA2 (Homo sapiens, UniProt P47712); experiment: Coumarin Assay (cPLA2 inhibition); format: biochemical; details: for inhibition at 6.25 µM: CONCENTRATION 6.25 micromolar; for inhibition at 10 µM: CONCENTRATION 10 micromolar; for inhibition at 19 µM: CONCENTRATION 19 micromolar; for inhibition at 100 µM: CONCENTRATION 100 micromolar; for inhibition at 30 µM: CONCENTRATION 30 micromolar; for inhibition at 0.65 µM: CONCENTRATION 0.65 micromolar; for inhibition at 0.7 µM: CONCENTRATION 0.7 micromolar; for inhibition at 0.95 µM: CONCENTRATION 0.95 micromolar; for inhibition at 0.85 µM: CONCENTRATION 0.85 micromolar
T1 sequence (P47712 1-749): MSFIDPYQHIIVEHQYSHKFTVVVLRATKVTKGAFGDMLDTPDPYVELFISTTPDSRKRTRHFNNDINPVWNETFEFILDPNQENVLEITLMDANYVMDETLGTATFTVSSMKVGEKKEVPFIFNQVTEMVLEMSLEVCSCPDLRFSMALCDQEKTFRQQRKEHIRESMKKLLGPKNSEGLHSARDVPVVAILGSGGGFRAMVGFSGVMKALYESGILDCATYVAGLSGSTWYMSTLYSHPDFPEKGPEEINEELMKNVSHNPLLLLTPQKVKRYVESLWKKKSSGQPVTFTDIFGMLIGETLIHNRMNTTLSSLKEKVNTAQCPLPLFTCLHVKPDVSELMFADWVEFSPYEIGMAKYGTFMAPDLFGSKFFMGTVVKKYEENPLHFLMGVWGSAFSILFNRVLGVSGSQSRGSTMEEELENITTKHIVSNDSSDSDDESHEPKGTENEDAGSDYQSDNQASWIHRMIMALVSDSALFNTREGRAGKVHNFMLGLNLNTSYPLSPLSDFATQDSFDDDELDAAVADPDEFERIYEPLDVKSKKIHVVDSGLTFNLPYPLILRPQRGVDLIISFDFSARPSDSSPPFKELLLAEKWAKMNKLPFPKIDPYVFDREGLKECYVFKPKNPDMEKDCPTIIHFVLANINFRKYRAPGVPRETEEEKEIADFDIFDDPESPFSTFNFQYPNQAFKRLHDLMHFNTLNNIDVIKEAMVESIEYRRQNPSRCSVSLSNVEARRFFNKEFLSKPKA
Summary of the method: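 Percent inhibition at the stated concentration, from the rate of 460 nm emission rise (360 nm excitation) per minute. Reaction started by adding 4 μg enzyme to compound and 60 μM 7-hydroxycoumarinyl 6-heptenoate in Hepes buffer pH 7.5 with 1 mM EDTA.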

[3] = CONCENTRATION 20 micromolar, read-out: PERCENT INHIBITION @
[4] = Rattus norvegicus, iv, 3 h, IV, 5 mg/Kg, read-out: PERCENT INHIBITION
[5] = Rattus norvegicus, po, 3 h, PO, read-out: PERCENT INHIBITION

Compound: COc1cc(C(=O)O)ccc1Cc1cn(C(c2ccccc2)c2ccccc2)c2ccc(NC(=O)OC3CCCC3)cc12 [Example 3, 4-[(1-benzhydryl-5-{[(cyclopentyloxy)carbonyl]amino}1H-indol-3-yl)methyl]-3-methoxybenzoic acid]
- inhibition in vivo at 5 mg/kg ([1]; Rattus norvegicus, po, 3 h, PO, 5 mg/Kg, read-out: PERCENT INHIBITION): 21.5%
- inhibition in vivo at 20 mg/kg ([1]; Rattus norvegicus, po, 3 h, PO-, 20 mg/Kg, read-out: PERCENT INHIBITION): 19.6%
- inhibition at 5 µM ([2]; CONCENTRATION 5 micromolar, read-out: PERCENT INHIBITION @): 50%
- inhibition at 6.25 µM ([2]; read-out: PERCENT INHIBITION @): 51%
- inhibition at 6.4 µM ([2]; CONCENTRATION 6.4 micromolar, read-out: PERCENT INHIBITION @): 50%
- inhibition at 10 µM ([2]; read-out: PERCENT INHIBITION @): 41%
- inhibition at 17.5 µM ([2]; CONCENTRATION 17.5 micromolar, read-out: PERCENT INHIBITION @): 50%
- inhibition at 19 µM ([2]; read-out: PERCENT INHIBITION @): 50%
- PERCENT INHIBITION @ ([2]; CONCENTRATION 20 micromolar): 38% and 43% and 44%
- inhibition at 20 µM [2, 3]: 37%
- inhibition at 22 µM ([2]; CONCENTRATION 22 micromolar, read-out: PERCENT INHIBITION @): 50%
- inhibition at 23 µM ([2]; CONCENTRATION 23 micromolar, read-out: PERCENT INHIBITION @): 50%
- inhibition at 23.5 µM ([2]; CONCENTRATION 23.5 micromolar, read-out: PERCENT INHIBITION @): 50%
- inhibition at 24 µM ([2]; CONCENTRATION 24 micromolar, read-out: PERCENT INHIBITION @): 50%
- inhibition at 100 µM ([2]; read-out: PERCENT INHIBITION @): 39%

Compound: COc1cc(C(=O)O)ccc1Cc1cn(C(C)C)c2ccc(NC(=O)OC3CCCC3)cc12 [Example 7, 4-[(5-{[(cylopentyloxy)carbonyl]amino}-1-isopropyl-1H-indol-3yl)methyl]-3-methoxybenzoic acid]
- PERCENT INHIBITION ([1]; IV, 5 mg/Kg): −0.65%
- PERCENT INHIBITION @ ([2]; CONCENTRATION 50 micromolar): 11%
- PERCENT INHIBITION @ ([2]; CONCENTRATION 235 micromolar): 50%

Compound: COc1cc(C(=O)O)ccc1Cc1cn(C2CCCC2)c2ccc(NC(=O)OC3CCCC3)cc12 [Example 8, 4-[(1-cyclopentyl-5-{[(cyclopentyloxy)carbonyl]amino}-1H-indol-3-yl)methyl]-3-methoxybenzoicacid]
- inhibition in vivo at 5 mg/kg [1, 4]: -5.7%
- inhibition at 65 µM ([2]; CONCENTRATION 65 micromolar, read-out: PERCENT INHIBITION @): 50%
- inhibition at 100 µM ([2]; read-out: PERCENT INHIBITION @): 44%

Compound: CCCCNC(=O)Nc1ccc2c(c1)c(Cc1ccc(C(=O)O)cc1OC)cn2C(c1ccccc1)c1ccccc1 [Example 9, 4[(1-benzhydryl-5-{[(butylamino)carbonyl]amino}-1H-indol-3-yl)methyl]3-methoxybenzoic acid]
- inhibition in vivo at 5 mg/kg [1, 4]: 4.46%
- inhibition at 13 µM ([2]; CONCENTRATION 13 micromolar, read-out: PERCENT INHIBITION @): 50%
- inhibition at 19 µM ([2]; read-out: PERCENT INHIBITION @): 50%

Compound: COc1cc(C(=O)O)ccc1Cc1cn(C(c2ccccc2)c2ccccc2)c2ccc(NS(C)(=O)=O)cc12 [Example 10, 4-({1-benzhydryl-5-[(methylsulfonyl)amino]-1H-indol-3-yl}methyl)-3-methoxybenzoic acid]
- inhibition in vivo at 5 mg/kg [1, 4]: 25.3%
- inhibition at 20 µM [2, 3]: 50%
- inhibition at 30 µM ([2]; read-out: PERCENT INHIBITION @): 50%
- inhibition at 33.5 µM ([2]; CONCENTRATION 33.5 micromolar, read-out: PERCENT INHIBITION @): 50%
- inhibition at 40 µM ([2]; CONCENTRATION 40 micromolar, read-out: PERCENT INHIBITION @): 50%
- inhibition at 45 µM ([2]; CONCENTRATION 45 micromolar, read-out: PERCENT INHIBITION @): 50%

Compound: COc1cc(C(=O)O)ccc1Cc1cn(C(c2ccccc2)c2ccccc2)c2ccc(NC(=O)C3CCCC3)cc12 [Example 11, 4-({1-benzhydryl-5-[(cyclopentylcarbonyl)amino]-1H-indol-3-yl}methyl)-3-methoxybenzoic acid]
- inhibition in vivo at 5 mg/kg [1, 4]: 14%
- inhibition at 10 µM ([2]; read-out: PERCENT INHIBITION @): 42%
- inhibition at 12 µM ([2]; CONCENTRATION 12 micromolar, read-out: PERCENT INHIBITION @): 50%
- inhibition at 12.5 µM ([2]; CONCENTRATION 12.5 micromolar, read-out: PERCENT INHIBITION @): 52%
- inhibition at 20 µM [2, 3]: 36%
- inhibition at 27.5 µM ([2]; CONCENTRATION 27.5 micromolar, read-out: PERCENT INHIBITION @): 50%
- inhibition at 30 µM ([2]; read-out: PERCENT INHIBITION @): 50%
- inhibition at 37 µM ([2]; CONCENTRATION 37 micromolar, read-out: PERCENT INHIBITION @): 50%

Compound: COc1cc(C(=O)O)ccc1Cc1cn(C(c2ccccc2)c2ccccc2)c2cc3c(cc12)OCO3 [Example 16, 4-[(5-benzhydryl-5H-[1,3]dioxolo[4,5-f]indol-7-yl)methyl]-3-methoxybenzoic acid]
- inhibition in vivo at 2 mg/kg [1, 5]: 3.8%
- inhibition in vivo at 10 mg/kg [1, 5]: 15%
- PERCENT INHIBITION @ ([2]; CONCENTRATION 0.125 micromolar): 61% and 71%
- inhibition at 0.14 µM ([2]; CONCENTRATION 0.14 micromolar, read-out: PERCENT INHIBITION @): 50%
- inhibition at 0.17 µM ([2]; CONCENTRATION 0.17 micromolar, read-out: PERCENT INHIBITION @): 50%
- inhibition at 0.25 µM ([2]; CONCENTRATION 0.25 micromolar, read-out: PERCENT INHIBITION @): 69%
- inhibition at 6.25 µM ([2]; read-out: PERCENT INHIBITION @): 98%

Further lines, with some results ahead:

- inhibition at 0.39 µM ([2]; CONCENTRATION 0.39 micromolar, read-out: PERCENT INHIBITION @): 50%
- inhibition at 0.4 µM ([2]; CONCENTRATION 0.4 micromolar, read-out: PERCENT INHIBITION @): 50%
- inhibition at 0.48 µM ([2]; CONCENTRATION 0.48 micromolar, read-out: PERCENT INHIBITION @): 50%
- inhibition at 0.55 µM ([2]; CONCENTRATION 0.55 micromolar, read-out: PERCENT INHIBITION @): 50%
- inhibition at 0.6 µM ([2]; CONCENTRATION 0.6 micromolar, read-out: PERCENT INHIBITION @): 50%
- inhibition at 0.65 µM ([2]; read-out: PERCENT INHIBITION @): 50%
- inhibition at 0.7 µM ([2]; read-out: PERCENT INHIBITION @): 50%
- inhibition at 0.75 µM ([2]; CONCENTRATION 0.75 micromolar, read-out: PERCENT INHIBITION @): 50%
- inhibition at 0.95 µM ([2]; read-out: PERCENT INHIBITION @): 50%
- inhibition at 2.5 µM ([2]; CONCENTRATION 2.5 micromolar, read-out: PERCENT INHIBITION @): 73%
- inhibition at 6.25 µM ([2]; read-out: PERCENT INHIBITION @): 81%
Compound: COc1cc(C(=O)O)ccc1Cc1cn(C(c2ccccc2)c2ccccc2)c2ccc(Br)cc12 [Example 13, 4-[(1-benzhydryl-5-bromo-1H-indol-3-yl)methyl]-3-methoxybenzoic acid]
- inhibition in vivo at 2 mg/kg [1, 5]: 26%
- inhibition in vivo at 10 mg/kg [1, 5]: 23.6%

- inhibition at 0.7 µM ([2]; read-out: PERCENT INHIBITION @): 50%
- inhibition at 0.95 µM ([2]; read-out: PERCENT INHIBITION @): 50%
Compound: COc1cc(C(=O)O)ccc1Cc1cn(C(c2ccccc2)c2ccccc2)c2ccc(F)cc12 [Example 14, 4-[(1-benzhydryl-5-fluoro-1H-indol-3-yl)methyl]-3-methoxybenzoic acid]
- inhibition in vivo at 2 mg/kg [1, 5]: 11.5%
- inhibition in vivo at 10 mg/kg [1, 5]: 8.14%

- inhibition at 0.65 µM ([2]; read-out: PERCENT INHIBITION @): 50%
- inhibition at 0.72 µM ([2]; CONCENTRATION 0.72 micromolar, read-out: PERCENT INHIBITION @): 50%
- inhibition at 0.76 µM ([2]; CONCENTRATION 0.76 micromolar, read-out: PERCENT INHIBITION @): 50%
- inhibition at 0.85 µM ([2]; read-out: PERCENT INHIBITION @): 50%
- inhibition at 6.25 µM ([2]; read-out: PERCENT INHIBITION @): 90%
Compound: COc1cc(C(=O)O)ccc1Cc1cn(C(c2ccccc2)c2ccccc2)c2ccc(C)cc12 [Example 15, 4-[(1-benzhydryl-5-methyl-1H-indol-3-yl)methyl]-3-methoxybenzoic acid]
- inhibition in vivo at 2 mg/kg [1, 5]: 7.05%
- inhibition in vivo at 10 mg/kg [1, 5]: 6.88%

- inhibition at 0.7 µM ([2]; read-out: PERCENT INHIBITION @): 50%
- inhibition at 0.8 µM ([2]; CONCENTRATION 0.8 micromolar, read-out: PERCENT INHIBITION @): 50%
- inhibition at 0.85 µM ([2]; read-out: PERCENT INHIBITION @): 50%
- inhibition at 0.98 µM ([2]; CONCENTRATION 0.98 micromolar, read-out: PERCENT INHIBITION @): 50%
Compound: COc1cc(C(=O)O)ccc1Cc1cn(C(c2ccccc2)c2ccccc2)c2ccc(C#N)cc12 [Example 17, 4-[(1-benzhydryl-5-cyano-1H-indol-3-yl)methyl]-3-methoxybenzoic acid]
- inhibition in vivo at 2 mg/kg [1, 5]: 19.3%
- inhibition in vivo at 10 mg/kg [1, 5]: 34.5%
